# Data as given in US20250152580A1, “METHODS FOR TREATING IMMUNE DISEASES” (Ascentage Pharma (Suzhou) co., Ltd., priority 2022, published 2025).
# “Also recorded” adds a separate entry of the source.
# How the values were obtained:
# [1] = test system: DSS induced IBD (colitis) model; experiment: DSS induced inflammatory bowel disease (IBD) model in C57BL/6 mice; type: in vivo; conditions: for pathological score (colon): day 8, vehicle 10.10±0.17
# Description: Female C57BL/6 mice (8 weeks old) were obtained from Beijing Vital River Laboratory Animal Co. Ltd. Animals were housed and handled in a temperature-controlled environment with a 12-h light/12-h dark cycle. A total of 50 mice were assigned to 5 groups by randomization based on body weight.
# On Day 0, colitis was induced by administration of 3% DSS (dextran sodium sulfate, molecular weight 36,000-50,000) in drinking water ad libitum for 8 days. 8-week-old mice were divided into 5 groups: Group 2, DSS treatment group (vehicle, po, qd, from day 0 to day 7); Group 3, DSS with 30 mg/kg Cpd. 4 (po, qd, from day 0 to day 7); Group 4, DSS with 100 mg/kg Cpd. 4 (po, qd, from day 0 to day 7); and Group 5, DSS with 50 mg/kg Cyclosporine (po, qd, from day 0 to day 7). For the Group 1 (G1) Sham group, the mice were provided drinking water without DSS.
# Clinical signs of IBD were assessed every day based on the scores of disease activity index (DAI) which was evaluated from three parameters using a scoring system from 0 to 4: stool consistency (0, normal stool; 1, soft but still formed stool; 2, soft and not formed stool; 3, very soft and wet stool; 4, watery diarrhea), bleeding score (0, negative hemoccult; 1, weak positive hemoccult; 2, positive hemoccult; 3, blood trace in stool visible; 4, gross rectal bleeding) and body weight loss (0, no body weight loos; 1, 1-5% body weight loss; 2, 6-10% body weight loss; 3, 11-20% body weight loss; 4, >20% body weight loss).
# At the end of induction with DSS, the animals were euthanized, dissected and the entire colon was quickly removed and gently cleared of feces.
# The entire colon was weighed, and the total length was measured. Colon weight gain and shortening is an indirect marker of inflammation. As expected, DSS increased colon weight to 243.8±10.73 mg. Cpd. […] 4 treatment (FIG. 11).
# The colon of a mouse was Swiss-rolled and fixed with neutralized PFA followed by H&E staining. After that, the pathologists from WuXi clinical pathological analysis platform, who were blinded to animal ID, reviewed the H&E staining and scored. The pathological scoring standards were as follows: crypt architecture (normal, 0; severe crypt distortion with loss of entire crypts, 3), degree of inflammatory cell infiltration (normal, 0; dense inflammatory infiltrate, 3), muscle thickening (normal, 0; marked muscle thickening present, 3), goblet cell depletion (absent, 0; present, 1) and crypt abscess (absent, 0; present, 1).
# At the end of the study (day 8), all the animals were sacrificed by CO2, and the colon tissues were collected and fixed in 10% formalin for pathological analysis (H&E and LFB staining). The histopathological score was evaluated microscopically in a blinded manner.
# [2] = test system: LPS inhalation induced lung neutrophils infiltration model; experiment: LPS inhalation induced neutrophils infiltration model in C57BL/6 mice; type: in vivo; conditions: Cpd. 4 50 mg/kg oral each day, Cpd. X 50 mg/kg iv twice a week, Cpd. XI 12 mg/kg iv twice a week, week 4-10; compared with Vehicle
# Procedure: C57BL/6 mice (6-8 weeks old) were obtained from Shanghai LC Laboratory Animal Co. Ltd. Animals, housed and handled in a temperature-controlled environment with a 12-h light/12-h dark cycle. A total of 60 female C57BL/6J mice will be modeled by atomization inhalation LPS 3 times a week for 10 weeks (adjustments may be made according to animal health status). LPS concentration is at 0.7 mg/mL. On each day of challenge, animals in G1 will receive aerosol inhalation of PBS and intravenous injection of Vehicle; animals in G2 will receive aerosol inhalation of LPS and intravenous injection of Vehicle; animals in G3 will be given aerosol inhalation of LPS and intravenous injection of 50 mg/kg Cpd. X twice a week (D1/4) from week 4-10; animals in G4 will be given aerosol inhalation of LPS and intravenous injection of 12 mg/kg Cpd.XI twice a week (D1/4) from week 4-10; animals in G5 will be given aerosol inhalation of LPS and oral administration of 50 mg/kg Cpd. 4 each day from week 4-10; animals in G6 will be given aerosol inhalation of LPS and oral administration of dexamethasone 1 hour before each challenge. Lungs will be gently lavaged via the tracheal cannula with 0.8 mL of PBS containing 1% BSA and 0.6 mM EDTA 48 hr after the last LPS exposure. The procedure will be repeated twice with 0.8 mL of PBS containing 1% BSA and 0.6 mM EDTA. The bronchoalveolar lavage fluid (BALF) will be centrifuged at 300×g for 5 min at 4° C., the cell pellet will be resuspended in 1.5 mL PBS. Total numbers of neutrophils in BALF will be counted using a hemocytometer.
# [3] = Cpd. 4 30 and 100 mg/kg po qd, compared with Vehicle
structure (smiles),measurement,setting,value
"O=C(NS(=O)(=O)c1ccc(NC[C@H]2COCCO2)c([N+](=O)[O-])c1)c1ccc(N2CCN(CC3=C(c4ccc(Cl)cc4)CC4(CCC4)CC3)CC2)cc1Oc1cnc2[nH]ccc2c1 [Cpd. 4, (S)-N-((4-(((1,4-dioxan-2-yl)methyl)amino)-3-nitrophenyl)sulfonyl)-2-((1H-pyrrolo[2,3-b]pyridin-5-yl)oxy)-4-(4-((6-(4-chlorophenyl)spiro[3.5]non-6-en-7-yl)methyl)piperazin-1-yl)benzamide]",colon length,"[1]; 30 mg/kg po qd day 0 to day 7, vehicle 4.81±0.08 cm",5.25±0.11 cm
same,colon weight,"[1]; 30 mg/kg po qd day 0 to day 7, vehicle 243.8±10.73 mg",188.4 ± 10.48 mg
same,pathological score (colon),[1]; 30 mg/kg po qd,6.70±0.25
same,pathological score (colon),[1]; 100 mg/kg po qd,3.70±0.25
same,"disease activity index (DAI), clinical score of IBD","[1]; Cpd. 4 30 and 100 mg/kg po qd day 0 to day 7, cyclosporine 50 mg/kg po qd, compared with Vehicle",significantly reducing the clinical score; also recorded: significantly reduced
same,colon length (in words),[1]; [3],significantly increased
same,colon weight (in words),[1]; [3],significantly decreased
same,pathological score (in words),"[1]; Cpd. 4, compared with Vehicle",significantly decreased
same,BALF neutrophils (infiltration in lung),[2],significantly reducing the BALF neutrophils; also recorded: significantly reduced
